Reference: ChEMBL document CHEMBL3351435, “New pyrrole derivatives with potent tubulin polymerization inhibiting activity as anticancer agents including hedgehog-dependent cancer” (J Med Chem, 2014)
Calls of active or inactive are those of the source. The calls are words filed in the database; no cut-off is given here.

Tests used:
[1] = Cell cycle arrest in human PC3 cells assessed as accumulation at G2/M phase at 500 nM after 24 hrs by propidium iodide staining-based flow cytometry; assay type: functional; conditions: PC-3
RD [2] = test: Cell cycle arrest in human RD cells assessed as accumulation at G2/M phase at 500 nM after 24 hrs by propidium iodide staining-based flow cytometry; assay type: functional
HepG2 [3] = test: Cell cycle arrest in human HepG2 cells at 500 to 2000 nM incubated for 24 hrs followed by compound washout measured after 24 hrs; assay type: functional, cell-based
[4] = Cell cycle arrest in human PC3 cells at 500 to 2000 nM incubated for 24 hrs followed by compound washout measured after 24 hrs; assay type: functional, cell-based; conditions: PC-3
[5] = Cell cycle arrest in human PC3 cells assessed as rounded cells at 500 nM after 24 hrs by propidium iodide staining-based flow cytometry; assay type: functional; conditions: PC-3
RD [6] = test: Cell cycle arrest in human RD cells assessed as rounded cells at 500 nM after 24 hrs by propidium iodide staining-based flow cytometry; assay type: functional
HepG2 [7] = test: Cell cycle arrest in human HepG2 cells assessed as rounded cells at 500 nM after 24 hrs by propidium iodide staining-based flow cytometry; assay type: functional
HepG2 [8] = test: Induction of apoptosis in human HepG2 cells after 48 hrs by annexin-V/propidium iodide staining-based flow cytometry; assay type: functional, cell-based
RD [9] = test: Cell cycle arrest in human RD cells at 1000 to 2000 nM incubated for 24 hrs followed by compound washout measured after 24 hrs; assay type: functional, cell-based
RD [10] = test: Cytotoxicity against human RD cells assessed as growth inhibition after 48 hrs by MTT method; assay type: functional, cell-based
HepG2 [11] = test: Cell cycle arrest in human HepG2 cells assessed as accumulation at G2/M phase at 500 nM after 24 hrs by propidium iodide staining-based flow cytometry; assay type: functional
RD [12] = test: Cell cycle arrest in human RD cells at 500 nM incubated for 24 hrs followed by compound washout measured after 24 hrs; assay type: functional, cell-based
Tubulin = test: Inhibition of tubulin (unknown origin) polymerization incubated 15 mins prior to GTP addition by spectrophotometry; assay type: protein-complex assay, Homo sapiens
MCF7 [13] = test: Cytotoxicity against human MCF7 cells after 96 hrs by Giemsa staining-based light microscopy; assay type: functional, cell-based; conditions: MCF7, 96 h
HT-29 = test: Cytotoxicity against human HT-29 cells assessed as growth inhibition after 48 hrs by MTT method; assay type: functional, cell-based; conditions: HT-29, 48 h
HeLa [14] = test: Cell cycle arrest in human HeLa cells assessed as accumulation at G2/M phase at 100 nM by propidium iodide staining-based flow cytometry; assay type: functional
[15] = Cytotoxicity against human MESSA cells assessed as growth inhibition after 72 hrs by CellTitre-Glo assay; assay type: functional, cell-based; conditions: MES-SA
MCF7 [16] = test: Cell cycle arrest in human MCF7 cells expressing exogenous caspase-3 at 100 nM by immunofluorescence microscopy; assay type: functional, cell-based
[17] = Cytotoxicity against human HCT116 cells assessed as growth inhibition after 48 hrs by MTT method; assay type: functional, cell-based; conditions: HCT-116, 48 h
MCF7 [18] = test: Cell cycle arrest in human MCF7 cells at 100 nM by immunofluorescence microscopy; assay type: functional, cell-based
HeLa [19] = test: Cytotoxicity against human HeLa cells assessed as growth inhibition after 48 hrs by MTT method; assay type: functional, cell-based
A549 = test: Cytotoxicity against human A549 cells assessed as growth inhibition after 48 hrs by MTT method; assay type: functional, cell-based; conditions: A549, 48 h
cells [20] = conditions: Homo sapiens, OVCAR-8, 96 h
Description: Cytotoxicity against human OVCAR8 cells assessed as growth inhibition after 96 hrs by Giemsa staining-based light microscopy

HeLa [21] = test: Cell cycle arrest in human HeLa cells by propidium iodide staining-based flow cytometry; assay type: functional
HeLa [22] = test: Induction of apoptosis in human HeLa cells assessed as short, aberrantly shaped, tripolar or multipolar microtubule at 100 nM by immunofluorescence analysis; assay type: functional, cell-based
HeLa [23] = test: Cell cycle arrest in human HeLa cells assessed as mitotic rounded-up phenotype at 100 nM by light microscopy; assay type: functional, cell-based
NCI/ADR-RES = test: Cytotoxicity against human NCI/ADR-RES cells assessed as growth inhibition after 96 hrs by Giemsa staining-based light microscopy; assay type: functional, cell-based
Tubulin (Homo sapiens) = Tubulin (Homo sapiens) (UniProt P68371+Q9H4B7+P0DPH7+P68366+Q13509+Q71U36+P04350+Q3ZCM7+P07437+P68363+Q9BQE3+Q6PEY2+Q13885+Q9BVA1+Q9BUF5); test: Displacement of [3H]colchicine from tubulin (unknown origin) at 5 uM after 10 mins; assay type: protein-complex assay
HeLa [24] = test: Cell cycle arrest in human HeLa cells assessed as accumulation at G2/M phase at 20 nM by propidium iodide staining-based flow cytometry; assay type: functional
[25] = Cytotoxicity against human D283 cells; assay type: functional, cell-based
RD [26] = test: Induction of apoptosis in human RD cells at 500 to 2000 nM after 48 hrs by annexin-V/propidium iodide staining-based flow cytometry; assay type: functional, cell-based
K562 [27] = test: Cell cycle arrest in human K562 cells assessed as mitotic index at 10 times IC50 (reference value: […] +/- […]%); assay type: functional
[28] = Cytotoxicity against human MESSA/DX5 cells assessed as growth inhibition after 72 hrs by CellTitre-Glo assay; assay type: functional, cell-based; conditions: MES-SA/Dx5, 72 h
HepG2 [29] = test: Induction of apoptosis in human HepG2 cells at 500 to 2000 nM after 48 hrs by annexin-V/propidium iodide staining-based flow cytometry; assay type: functional, cell-based
PC-3 = test: Induction of apoptosis in human PC3 cells after 48 hrs by annexin-V/propidium iodide staining-based flow cytometry; assay type: functional, cell-based
[30] = Inhibition of hedgehog signaling in mouse NIH/3T3 Shh-Light II cells after 48 hrs by luciferase reporter gene assay; assay type: functional, cell-based
K562 [31] = test: Cytotoxicity against human K562 cells assessed as growth inhibition after 96 hrs by Giemsa staining-based light microscopy; assay type: functional, cell-based; conditions: K562, 96 h
[32] = Cytotoxicity against human PC3 cells assessed as growth inhibition after 48 hrs by MTT method; assay type: functional, cell-based; conditions: PC-3, 48 h
HepG2 [33] = test: Cytotoxicity against human HepG2 cells assessed as growth inhibition after 48 hrs by MTT method; assay type: functional, cell-based; conditions: HepG2, 48 h
HeLa [34] = test: Induction of apoptosis in human HeLa cells assessed as failure of MT elongation at 20 nM by immunofluorescence analysis; assay type: functional, cell-based
HeLa [35] = test: Induction of apoptosis in human HeLa cells assessed as failure of MT elongation at 100 nM by immunofluorescence analysis; assay type: functional, cell-based
K562 [36] = test: Cell cycle arrest in human K562 cells assessed as mitotic index at 0.1 nM (reference value: 3 +/- 1%); assay type: functional
cells [37] = conditions: Homo sapiens, HCT-15, 72 h
Description: Cytotoxicity against human HCT15 cells assessed as growth inhibition after 72 hrs by CellTitre-Glo assay

HeLa [38] = test: Induction of apoptosis in human HeLa cells assessed as short, aberrantly shaped, tripolar or multipolar microtubule microtubule at 20 nM by immunofluorescence analysis; assay type: functional, cell-based
HeLa [39] = test: Induction of apoptosis in human HeLa cells assessed as unstructured tubulin foci at 100 nM by immunofluorescence analysis; assay type: functional, cell-based

In the case of `CC(=O)O[C@H]1C(=O)[C@@]2(C)[C@H]([C@H](OC(=O)c3ccccc3)[C@]3(O)C[C@H](OC(=O)[C@H](O)[C@@H](NC(=O)c4ccccc4)c4ccccc4)C(C)=C1C3(C)C)[C@]1(OC(C)=O)CO[C@@H]1C[C@@H]2O` [PACLITAXEL], the Activity [1] is reported as “Active”, the Activity (RD [2]) is reported as “Active” and the Activity (HepG2 [3]) is reported as “inactive”. For the same compound, the Activity [4] was “inactive”, the Activity [5] was “Active” and the Activity (RD [6]) was “Active”. For the same compound, the Activity (HepG2 [7]) was “Active”, the Activity (HepG2 [8]) was “Dose-dependent effect” and the Activity (RD [9]) was “inactive”. For the same compound, the IC50 (RD [10]) was 14200 nM, the Activity (HepG2 [11]) was “Active” and the Activity (RD [12]) was “Active”.

With `COc1cc(C(=O)c2ccn(-c3ccccc3)c2)cc(OC)c1OC` the IC50 (Tubulin) was 1500 nM, the IC50 (MCF7 [13]) was 700 nM and the IC50 (HT-29) was 90 nM. For the same compound, the Activity (HeLa [14]) was “Active”, the IC50 [15] was 56 nM and the Activity (MCF7 [16]) was “inactive”. For the same compound, the IC50 [17] was 77 nM, the Activity (MCF7 [18]) was “inactive” and the IC50 (HeLa [19]) was 100 nM. The IC50 (A549) was 200 nM, the IC50 (cells [20]) was 45 nM and the Activity (HeLa [21]) was “Dose-dependent effect”. The Activity (HeLa [22]) was “Active”, the Activity (HeLa [23]) was “Active” and the IC50 (NCI/ADR-RES) was 20 nM. For the same compound, the inhibition (Tubulin (Homo sapiens)) was 80% and the Activity (HeLa [24]) was “Active”.

In the case of `COc1cc(C(=O)c2ccn(-c3cccc(NC(=N)N)c3)c2)cc(OC)c1OC.Cl`, the IC50 (Tubulin) is reported as 1200 nM, the Activity [1] is reported as “Active” and the IC50 (MCF7 [13]) is reported as 20 nM. For the same compound, the IC50 [25] was 675 nM, the Activity (RD [2]) was “Active” and the Activity (HepG2 [3]) was “inactive”. For the same compound, the IC50 [15] was 14 nM, the Activity (RD [26]) was “Active” and the Activity (K562 [27]) was 71%. The Activity [5] was “Active”, the IC50 [28] was 16 nM and the Activity (RD [6]) was “Active”. The Activity (HepG2 [7]) was “Active”, the Activity (HepG2 [29]) was “Active” and the Activity (PC-3) was “Dose-dependent effect”. For the same compound, the inhibition [30] was “Dose-dependent effect”, the IC50 (K562 [31]) was 25 nM and the IC50 [32] was 3.9 nM. The inhibition (Tubulin (Homo sapiens)) was 87%, the IC50 (RD [10]) was 803 nM and the IC50 (HepG2 [33]) was 49.5 nM. The Activity (HepG2 [11]) was “Active” and the Activity (RD [12]) was “Active”.

For `COc1ccc(/C=C\c2cc(OC)c(OC)c(OC)c2)cc1O` [COMBRETASTATIN A4], the Activity (HeLa [34]) was “Active”, the Activity (HeLa [35]) was “Active” and the Activity (K562 [36]) was 65%. The IC50 (cells [37]) was 39 nM, the Activity (HeLa [38]) was “Active” and the Activity (HeLa [24]) was “Active”. For the same compound, the Activity (HeLa [39]) was “Active”.
